Assays:
Settings in all cases: Compound concentration 1000.0 nM
[1] = tested on: Tyrosine-protein kinase ABL1 (Homo sapiens), P00519 [E255K]
[2] = tested on: Tyrosine-protein kinase ABL1 (Homo sapiens), P00519 [F317L]
[3] = target: Tyrosine-protein kinase ABL1 (Homo sapiens) (UniProt P00519)
[4] = target: Atypical kinase COQ8A, mitochondrial (Homo sapiens) (UniProt Q8NI60)
[5] = target: Aurora kinase C (Homo sapiens) (UniProt Q9UQB9)
[6] = target: BMP-2-inducible protein kinase (Homo sapiens) (UniProt Q9NSY1)
[7] = target: Bone morphogenetic protein receptor type-1B (Homo sapiens) (UniProt O00238)
[8] = target: Serine/threonine-protein kinase B-raf (Homo sapiens) (UniProt P15056)
[9] = target: Calcium/calmodulin-dependent protein kinase type 1G (Homo sapiens) (UniProt Q96NX5)
[10] = target: Dual specificity protein kinase CLK1 (Homo sapiens) (UniProt P49759)
[11] = target: Casein kinase I isoform alpha-like (Homo sapiens) (UniProt Q8N752)
[12] = target: Casein kinase I isoform gamma-3 (Homo sapiens) (UniProt Q9Y6M4)
[13] = target: Serine/threonine-protein kinase MRCK gamma (Homo sapiens) (UniProt Q6DT37)
[14] = target: Ephrin type-A receptor 4 (Homo sapiens) (UniProt P54764)
[15] = target: Ephrin type-A receptor 8 (Homo sapiens) (UniProt P29322)
[16] = target: Mitogen-activated protein kinase 15 (Homo sapiens) (UniProt Q8TD08)
[17] = target: Vascular endothelial growth factor receptor 1 (Homo sapiens) (UniProt P17948)
[18] = tested on: Receptor-type tyrosine-protein kinase FLT3 (Homo sapiens), P36888 [R834Q]
[19] = target: Inhibitor of nuclear factor kappa-B kinase subunit beta (Homo sapiens) (UniProt O14920)
[20] = target: Tyrosine-protein kinase ITK/TSK (Homo sapiens) (UniProt Q08881)
[21] = tested on: Mast/stem cell growth factor receptor Kit (Homo sapiens), P10721 [D816V]
[22] = target: Serine/threonine-protein kinase MARK1 (Homo sapiens) (UniProt Q9P0L2)
[23] = target: MAP/microtubule affinity-regulating kinase 4 (Homo sapiens) (UniProt Q96L34)
[24] = target: Dual specificity mitogen-activated protein kinase kinase 6 (Homo sapiens) (UniProt P52564)
[25] = target: Serine/threonine-protein kinase MRCK alpha (Homo sapiens) (UniProt Q5VT25)
[26] = target: Myosin light chain kinase family member 4 (Homo sapiens) (UniProt Q86YV6)
[27] = target: Serine/threonine-protein kinase Nek1 (Homo sapiens) (UniProt Q96PY6)
[28] = target: Serine/threonine-protein kinase Nek4 (Homo sapiens) (UniProt P51957)
[29] = target: Serine/threonine-protein kinase Nek7 (Homo sapiens) (UniProt Q8TDX7)
[30] = target: Serine/threonine-protein kinase PAK 5 (Homo sapiens) (UniProt Q9P286)
[31] = target: Cyclin-dependent kinase 17 (Homo sapiens) (UniProt Q00537)
[32] = target: Cyclin-dependent kinase 18 (Homo sapiens) (UniProt Q07002)
[33] = target: Serine/threonine-protein kinase pim-2 (Homo sapiens) (UniProt Q9P1W9)
[34] = target: Phosphatidylinositol 5-phosphate 4-kinase type-2 beta (Homo sapiens) (UniProt P78356)
[35] = target: Membrane-associated tyrosine- and threonine-specific cdc2-inhibitory kinase (Homo sapiens) (UniProt Q99640)
[36] = target: Proto-oncogene tyrosine-protein kinase receptor Ret (Homo sapiens) (UniProt P07949)
[37] = target: Receptor-interacting serine/threonine-protein kinase 2 (Homo sapiens) (UniProt O43353)
[38] = target: Rho-associated protein kinase 1 (Homo sapiens) (UniProt Q13464)
[39] = target: Rho-associated protein kinase 2 (Homo sapiens) (UniProt O75116)
[40] = target: Serine/threonine-protein kinase SIK1 (Homo sapiens) (UniProt P57059)
[41] = target: Mitogen-activated protein kinase kinase kinase 7 (Homo sapiens) (UniProt O43318)
[42] = target: Serine/threonine-protein kinase TAO3 (Homo sapiens) (UniProt Q9H2K8)
[43] = target: Angiopoietin-1 receptor (Homo sapiens) (UniProt Q02763)
[44] = target: Activated CDC42 kinase 1 (Homo sapiens) (UniProt Q07912)
[45] = target: Serine/threonine-protein kinase TNNI3K (Homo sapiens) (UniProt Q59H18)
Sequence of Serine/threonine-protein kinase TNNI3K (Homo sapiens) (Q59H18 whole entry): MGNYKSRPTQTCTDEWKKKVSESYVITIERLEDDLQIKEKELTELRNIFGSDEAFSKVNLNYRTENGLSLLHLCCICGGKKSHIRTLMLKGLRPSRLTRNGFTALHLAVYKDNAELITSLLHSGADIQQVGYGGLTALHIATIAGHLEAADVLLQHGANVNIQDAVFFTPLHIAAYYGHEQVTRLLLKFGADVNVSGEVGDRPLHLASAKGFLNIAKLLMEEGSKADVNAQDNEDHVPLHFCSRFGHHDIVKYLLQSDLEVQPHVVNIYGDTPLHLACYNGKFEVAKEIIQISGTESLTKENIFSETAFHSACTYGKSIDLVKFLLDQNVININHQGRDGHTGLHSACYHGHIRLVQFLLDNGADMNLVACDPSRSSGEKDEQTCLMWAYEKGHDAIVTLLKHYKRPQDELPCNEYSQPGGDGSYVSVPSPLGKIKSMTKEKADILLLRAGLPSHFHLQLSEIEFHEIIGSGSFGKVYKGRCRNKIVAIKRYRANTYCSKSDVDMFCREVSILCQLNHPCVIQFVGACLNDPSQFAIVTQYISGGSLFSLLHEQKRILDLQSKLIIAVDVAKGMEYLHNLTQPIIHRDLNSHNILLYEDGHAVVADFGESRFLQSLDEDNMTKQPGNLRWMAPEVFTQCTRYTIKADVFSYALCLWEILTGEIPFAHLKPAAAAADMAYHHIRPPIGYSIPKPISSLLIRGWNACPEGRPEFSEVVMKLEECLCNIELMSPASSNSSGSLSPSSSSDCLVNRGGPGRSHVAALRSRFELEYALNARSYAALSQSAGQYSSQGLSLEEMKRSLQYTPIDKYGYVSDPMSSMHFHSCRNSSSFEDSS

Sequence of BMP-2-inducible protein kinase (Homo sapiens) (Q9NSY1 whole entry, looked up): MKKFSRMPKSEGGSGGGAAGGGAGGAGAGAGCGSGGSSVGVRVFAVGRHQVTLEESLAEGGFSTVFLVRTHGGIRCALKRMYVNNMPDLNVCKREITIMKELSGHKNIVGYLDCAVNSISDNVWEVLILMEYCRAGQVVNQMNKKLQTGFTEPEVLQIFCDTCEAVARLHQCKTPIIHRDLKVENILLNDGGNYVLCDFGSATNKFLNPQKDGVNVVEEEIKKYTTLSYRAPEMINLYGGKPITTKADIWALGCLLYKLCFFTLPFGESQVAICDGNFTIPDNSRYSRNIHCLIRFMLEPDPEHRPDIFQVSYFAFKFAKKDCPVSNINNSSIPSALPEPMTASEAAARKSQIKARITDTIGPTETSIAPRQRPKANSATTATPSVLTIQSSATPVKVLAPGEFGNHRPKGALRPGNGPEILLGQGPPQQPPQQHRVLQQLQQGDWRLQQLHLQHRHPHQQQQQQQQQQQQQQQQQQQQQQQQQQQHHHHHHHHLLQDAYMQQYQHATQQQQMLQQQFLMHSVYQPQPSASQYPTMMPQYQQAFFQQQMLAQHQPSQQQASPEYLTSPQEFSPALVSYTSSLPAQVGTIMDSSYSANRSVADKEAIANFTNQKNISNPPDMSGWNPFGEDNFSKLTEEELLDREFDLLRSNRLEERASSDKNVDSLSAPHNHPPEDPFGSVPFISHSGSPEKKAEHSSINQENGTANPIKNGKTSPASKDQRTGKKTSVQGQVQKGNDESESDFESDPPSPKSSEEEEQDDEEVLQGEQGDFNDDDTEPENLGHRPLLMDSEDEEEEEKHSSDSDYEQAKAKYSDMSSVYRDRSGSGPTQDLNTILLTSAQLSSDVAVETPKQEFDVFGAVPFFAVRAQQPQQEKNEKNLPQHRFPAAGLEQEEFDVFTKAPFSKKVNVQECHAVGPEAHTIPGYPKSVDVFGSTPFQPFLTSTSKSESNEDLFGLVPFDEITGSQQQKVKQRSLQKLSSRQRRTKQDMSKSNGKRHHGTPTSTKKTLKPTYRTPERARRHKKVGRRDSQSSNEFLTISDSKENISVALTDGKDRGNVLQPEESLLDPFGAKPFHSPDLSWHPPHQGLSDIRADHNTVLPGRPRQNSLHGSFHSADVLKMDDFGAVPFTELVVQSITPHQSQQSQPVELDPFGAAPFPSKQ
Sequence of Vascular endothelial growth factor receptor 1 (Homo sapiens) (P17948 whole entry): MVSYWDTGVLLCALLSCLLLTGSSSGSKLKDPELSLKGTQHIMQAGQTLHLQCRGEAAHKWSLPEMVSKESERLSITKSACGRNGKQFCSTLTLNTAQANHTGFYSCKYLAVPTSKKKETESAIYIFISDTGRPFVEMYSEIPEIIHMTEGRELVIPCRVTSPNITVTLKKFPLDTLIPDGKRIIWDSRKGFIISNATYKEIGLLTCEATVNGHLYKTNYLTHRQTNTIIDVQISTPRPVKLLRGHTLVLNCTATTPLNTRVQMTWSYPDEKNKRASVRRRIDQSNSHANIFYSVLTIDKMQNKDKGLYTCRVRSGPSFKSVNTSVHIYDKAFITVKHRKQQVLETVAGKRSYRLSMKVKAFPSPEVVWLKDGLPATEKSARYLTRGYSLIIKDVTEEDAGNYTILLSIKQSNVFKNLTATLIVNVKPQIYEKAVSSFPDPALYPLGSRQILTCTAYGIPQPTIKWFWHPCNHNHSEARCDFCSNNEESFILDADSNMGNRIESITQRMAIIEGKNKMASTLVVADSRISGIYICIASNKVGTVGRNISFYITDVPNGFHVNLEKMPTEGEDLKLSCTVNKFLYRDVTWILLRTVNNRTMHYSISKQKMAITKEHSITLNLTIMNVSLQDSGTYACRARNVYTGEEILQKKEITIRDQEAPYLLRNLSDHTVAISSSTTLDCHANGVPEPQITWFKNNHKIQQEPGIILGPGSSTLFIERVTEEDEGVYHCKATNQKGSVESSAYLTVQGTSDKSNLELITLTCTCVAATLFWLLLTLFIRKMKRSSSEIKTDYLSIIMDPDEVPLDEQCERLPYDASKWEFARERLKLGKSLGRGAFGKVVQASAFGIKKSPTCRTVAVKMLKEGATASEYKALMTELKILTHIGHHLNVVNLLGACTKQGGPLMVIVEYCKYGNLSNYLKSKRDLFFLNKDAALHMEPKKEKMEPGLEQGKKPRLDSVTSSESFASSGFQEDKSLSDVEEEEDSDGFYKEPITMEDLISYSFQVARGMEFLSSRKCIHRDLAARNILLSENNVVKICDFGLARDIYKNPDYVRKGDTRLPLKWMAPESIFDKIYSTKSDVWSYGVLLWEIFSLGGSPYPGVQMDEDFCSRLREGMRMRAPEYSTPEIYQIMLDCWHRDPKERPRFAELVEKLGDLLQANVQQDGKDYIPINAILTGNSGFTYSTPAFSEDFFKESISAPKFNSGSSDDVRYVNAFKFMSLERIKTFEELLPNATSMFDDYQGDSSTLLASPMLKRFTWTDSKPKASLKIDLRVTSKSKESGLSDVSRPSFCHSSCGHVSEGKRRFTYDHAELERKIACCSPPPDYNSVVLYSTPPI
Sequence of Aurora kinase C (Homo sapiens) (Q9UQB9 whole entry): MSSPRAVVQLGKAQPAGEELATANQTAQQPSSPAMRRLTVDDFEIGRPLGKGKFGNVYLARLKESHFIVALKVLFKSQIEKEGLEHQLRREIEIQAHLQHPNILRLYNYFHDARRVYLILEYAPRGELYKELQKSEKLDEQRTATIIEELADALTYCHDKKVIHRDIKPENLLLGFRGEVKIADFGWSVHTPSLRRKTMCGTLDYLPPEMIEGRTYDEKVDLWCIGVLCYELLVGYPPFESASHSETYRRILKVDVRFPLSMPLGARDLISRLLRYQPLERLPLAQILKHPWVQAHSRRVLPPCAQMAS
Sequence of Ephrin type-A receptor 4 (Homo sapiens) (P54764 whole entry): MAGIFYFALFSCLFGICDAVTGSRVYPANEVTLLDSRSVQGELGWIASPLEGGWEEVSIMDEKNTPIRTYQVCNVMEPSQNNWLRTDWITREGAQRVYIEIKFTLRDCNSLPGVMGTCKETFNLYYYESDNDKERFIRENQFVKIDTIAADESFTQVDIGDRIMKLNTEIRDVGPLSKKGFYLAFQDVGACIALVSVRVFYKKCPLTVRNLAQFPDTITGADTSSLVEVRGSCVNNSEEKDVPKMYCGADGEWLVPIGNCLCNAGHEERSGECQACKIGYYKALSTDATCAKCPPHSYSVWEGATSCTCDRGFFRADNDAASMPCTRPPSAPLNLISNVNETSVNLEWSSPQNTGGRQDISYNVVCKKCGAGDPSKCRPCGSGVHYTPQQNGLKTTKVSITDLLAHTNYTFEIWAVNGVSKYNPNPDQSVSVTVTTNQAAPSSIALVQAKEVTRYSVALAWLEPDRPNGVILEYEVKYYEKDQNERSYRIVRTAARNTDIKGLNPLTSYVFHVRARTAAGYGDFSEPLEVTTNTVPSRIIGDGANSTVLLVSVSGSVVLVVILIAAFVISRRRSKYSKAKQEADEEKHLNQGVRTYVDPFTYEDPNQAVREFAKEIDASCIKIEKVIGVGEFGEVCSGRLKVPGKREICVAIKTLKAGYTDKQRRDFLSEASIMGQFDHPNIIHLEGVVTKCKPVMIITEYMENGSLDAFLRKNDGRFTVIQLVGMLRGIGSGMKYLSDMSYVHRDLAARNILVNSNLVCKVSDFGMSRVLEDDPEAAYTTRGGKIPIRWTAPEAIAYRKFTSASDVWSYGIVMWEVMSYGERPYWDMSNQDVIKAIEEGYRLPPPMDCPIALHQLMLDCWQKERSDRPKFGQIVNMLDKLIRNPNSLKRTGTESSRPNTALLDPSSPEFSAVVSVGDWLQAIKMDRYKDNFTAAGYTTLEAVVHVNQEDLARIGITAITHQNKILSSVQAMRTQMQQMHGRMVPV
Sequence of Phosphatidylinositol 5-phosphate 4-kinase type-2 beta (Homo sapiens) (P78356 whole entry): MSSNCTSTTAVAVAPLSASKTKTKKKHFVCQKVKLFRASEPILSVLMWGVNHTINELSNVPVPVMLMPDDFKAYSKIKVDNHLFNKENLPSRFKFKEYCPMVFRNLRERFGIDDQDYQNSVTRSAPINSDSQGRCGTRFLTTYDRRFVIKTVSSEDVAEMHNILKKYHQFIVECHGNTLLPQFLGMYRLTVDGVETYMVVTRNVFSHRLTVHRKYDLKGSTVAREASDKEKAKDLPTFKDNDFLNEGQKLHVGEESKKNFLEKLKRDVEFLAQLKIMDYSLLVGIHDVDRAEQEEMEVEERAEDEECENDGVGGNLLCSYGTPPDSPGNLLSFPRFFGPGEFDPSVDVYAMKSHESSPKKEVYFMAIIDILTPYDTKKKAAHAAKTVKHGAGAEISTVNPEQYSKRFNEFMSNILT

Structure (SMILES): Cc1c(NC(=O)c2cc(C(N)=O)nc3cc(F)ccc23)c(C(F)(F)F)nn1Cc1ccc(C(C)(C)C)cc1 [BAY-588]
- residual activity [1]: 100%
- residual activity [2]: 98%
- residual activity [3]: 96%
- residual activity [4]: 85%
- residual activity [5]: 100%
- residual activity [6]: 100%
- residual activity [7]: 82%
- residual activity [8]: 81%
- residual activity [9]: 100%
- residual activity [10]: 62%
- residual activity [11]: 93%
- residual activity [12]: 100%
- residual activity [13]: 91%
- residual activity [14]: 100%
- residual activity [15]: 100%
- residual activity [16]: 56%
- residual activity [17]: 100%
- residual activity [18]: 100%
- residual activity [19]: 100%
- residual activity [20]: 95%
- residual activity [21]: 82%
- residual activity [22]: 100%
- residual activity [23]: 97%
- residual activity [24]: 92%
- residual activity [25]: 100%
- residual activity [26]: 100%
- residual activity [27]: 97%
- residual activity [28]: 100%
- residual activity [29]: 100%
- residual activity [30]: 100%
- residual activity [31]: 100%
- residual activity [32]: 88%
- residual activity [33]: 100%
- residual activity [34]: 91%
- residual activity [35]: 100%
- residual activity [36]: 100%
- residual activity [37]: 93%
- residual activity [38]: 100%
- residual activity [39]: 100%
- residual activity [40]: 87%
- residual activity [41]: 100%
- residual activity [42]: 45%
- residual activity [43]: 94%
- residual activity [44]: 100%
- residual activity [45]: 81%

Structure (SMILES): Cc1c(NC(=O)c2cc(C(N)=O)nc3cc(F)ccc23)c(C(F)(F)F)nn1Cc1ccc(C#N)cc1 [BAY-876]
- residual activity [1]: 76%
- residual activity [2]: 81%
- residual activity [3]: 84%
- residual activity [4]: 82%
- residual activity [5]: 90%
- residual activity [6]: 96%
- residual activity [7]: 77%
- residual activity [8]: 91%
- residual activity [9]: 75%
- residual activity [10]: 86%
- residual activity [11]: 100%
- residual activity [12]: 100%
- residual activity [13]: 91%
- residual activity [14]: 99%
- residual activity [15]: 91%
- residual activity [16]: 100%
- residual activity [17]: 98%
- residual activity [18]: 83%
- residual activity [19]: 92%
- residual activity [20]: 78%
- residual activity [21]: 88%
- residual activity [22]: 100%
- residual activity [23]: 100%
- residual activity [24]: 100%
- residual activity [25]: 97%
- residual activity [26]: 90%
- residual activity [27]: 95%
- residual activity [28]: 92%
- residual activity [29]: 99%
- residual activity [30]: 92%
- residual activity [31]: 92%
- residual activity [32]: 100%
- residual activity [33]: 94%
- residual activity [34]: 88%
- residual activity [35]: 99%
- residual activity [36]: 94%
- residual activity [37]: 100%
- residual activity [38]: 97%
- residual activity [39]: 99%
- residual activity [40]: 100%
- residual activity [41]: 68%
- residual activity [42]: 79%
- residual activity [43]: 92%
- residual activity [44]: 71%
- residual activity [45]: 100%

From ChEMBL document CHEMBL4507267 (2021)
